Laboratory results from patent US11332716B2, “Methods and compositions for producing pancreatic beta cells” (The Regents of the University of California, priority 2015, dated 2022).

Key:
[1] = biological target: T1, Axl (Homo sapiens, UniProt P30530); details: at 1 nM; cited from earlier work
T1 sequence (P30530 26-894): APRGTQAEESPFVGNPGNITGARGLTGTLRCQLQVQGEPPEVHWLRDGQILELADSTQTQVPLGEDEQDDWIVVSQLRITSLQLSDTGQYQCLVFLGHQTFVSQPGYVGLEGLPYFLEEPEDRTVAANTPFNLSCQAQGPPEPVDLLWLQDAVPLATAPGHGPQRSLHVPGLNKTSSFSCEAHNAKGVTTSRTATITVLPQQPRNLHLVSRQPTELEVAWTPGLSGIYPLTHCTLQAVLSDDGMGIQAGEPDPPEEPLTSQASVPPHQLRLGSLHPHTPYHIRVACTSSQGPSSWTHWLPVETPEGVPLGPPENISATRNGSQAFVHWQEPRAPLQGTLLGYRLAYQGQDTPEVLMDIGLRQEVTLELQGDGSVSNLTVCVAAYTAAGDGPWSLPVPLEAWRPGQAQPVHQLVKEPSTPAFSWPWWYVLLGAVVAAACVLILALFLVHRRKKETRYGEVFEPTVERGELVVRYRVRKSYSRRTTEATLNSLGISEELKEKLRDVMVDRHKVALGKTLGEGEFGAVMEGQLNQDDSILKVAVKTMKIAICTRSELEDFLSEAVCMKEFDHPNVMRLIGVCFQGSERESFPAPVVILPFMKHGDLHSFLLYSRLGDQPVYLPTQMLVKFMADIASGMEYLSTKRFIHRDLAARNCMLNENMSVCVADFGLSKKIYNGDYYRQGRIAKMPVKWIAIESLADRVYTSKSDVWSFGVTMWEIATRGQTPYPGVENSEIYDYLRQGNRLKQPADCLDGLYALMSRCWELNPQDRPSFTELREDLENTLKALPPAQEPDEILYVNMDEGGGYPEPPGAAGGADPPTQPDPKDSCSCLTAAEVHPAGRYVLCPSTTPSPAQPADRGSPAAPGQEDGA

[2] = biological target: ALK (Homo sapiens, UniProt Q9UM73); details: at 1 nM; cited from earlier work
ALK, sequence (Q9UM73 19-1620, species assumed): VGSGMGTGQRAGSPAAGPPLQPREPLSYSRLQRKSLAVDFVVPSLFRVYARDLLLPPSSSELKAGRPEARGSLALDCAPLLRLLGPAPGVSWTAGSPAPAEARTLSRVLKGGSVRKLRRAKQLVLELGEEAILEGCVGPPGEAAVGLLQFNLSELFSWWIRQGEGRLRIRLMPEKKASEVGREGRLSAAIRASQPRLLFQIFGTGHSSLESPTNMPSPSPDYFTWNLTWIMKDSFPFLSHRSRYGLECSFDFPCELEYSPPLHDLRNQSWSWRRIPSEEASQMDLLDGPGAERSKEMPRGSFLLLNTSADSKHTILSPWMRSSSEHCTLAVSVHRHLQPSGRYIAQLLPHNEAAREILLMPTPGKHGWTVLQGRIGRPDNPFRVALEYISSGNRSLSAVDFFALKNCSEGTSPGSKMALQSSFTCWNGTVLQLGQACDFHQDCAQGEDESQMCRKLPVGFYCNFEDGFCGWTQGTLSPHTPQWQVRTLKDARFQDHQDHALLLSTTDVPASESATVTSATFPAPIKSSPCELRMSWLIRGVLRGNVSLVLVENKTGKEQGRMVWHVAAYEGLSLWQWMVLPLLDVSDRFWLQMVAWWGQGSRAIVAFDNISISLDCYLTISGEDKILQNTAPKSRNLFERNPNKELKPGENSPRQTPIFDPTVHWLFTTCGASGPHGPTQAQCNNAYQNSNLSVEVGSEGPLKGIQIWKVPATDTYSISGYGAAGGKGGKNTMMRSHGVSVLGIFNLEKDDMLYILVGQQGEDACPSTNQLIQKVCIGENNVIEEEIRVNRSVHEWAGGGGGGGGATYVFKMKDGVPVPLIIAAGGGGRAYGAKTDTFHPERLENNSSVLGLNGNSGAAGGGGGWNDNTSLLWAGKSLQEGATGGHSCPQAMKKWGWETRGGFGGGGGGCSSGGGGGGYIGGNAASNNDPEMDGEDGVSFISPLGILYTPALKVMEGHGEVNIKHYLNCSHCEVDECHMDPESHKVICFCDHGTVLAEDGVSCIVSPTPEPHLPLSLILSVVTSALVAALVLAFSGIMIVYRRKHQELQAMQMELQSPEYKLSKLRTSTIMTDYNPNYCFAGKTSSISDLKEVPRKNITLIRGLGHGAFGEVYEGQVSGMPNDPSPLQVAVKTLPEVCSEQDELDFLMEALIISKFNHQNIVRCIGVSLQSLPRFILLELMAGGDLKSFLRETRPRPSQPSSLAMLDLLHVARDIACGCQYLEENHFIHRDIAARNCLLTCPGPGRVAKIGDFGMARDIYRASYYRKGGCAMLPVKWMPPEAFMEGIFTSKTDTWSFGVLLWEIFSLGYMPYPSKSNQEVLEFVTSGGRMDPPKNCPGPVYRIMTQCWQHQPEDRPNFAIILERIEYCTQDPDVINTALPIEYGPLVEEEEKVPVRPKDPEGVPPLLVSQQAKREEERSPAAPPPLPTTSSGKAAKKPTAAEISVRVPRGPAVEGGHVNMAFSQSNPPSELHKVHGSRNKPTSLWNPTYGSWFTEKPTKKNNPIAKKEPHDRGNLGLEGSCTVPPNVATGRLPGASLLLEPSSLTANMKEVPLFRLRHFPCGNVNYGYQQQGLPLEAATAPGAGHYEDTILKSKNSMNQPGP

[3] = biological target: LTK (Homo sapiens, UniProt P29376); details: at 1 nM; cited from earlier work
LTK, sequence (P29376 17-864, species assumed): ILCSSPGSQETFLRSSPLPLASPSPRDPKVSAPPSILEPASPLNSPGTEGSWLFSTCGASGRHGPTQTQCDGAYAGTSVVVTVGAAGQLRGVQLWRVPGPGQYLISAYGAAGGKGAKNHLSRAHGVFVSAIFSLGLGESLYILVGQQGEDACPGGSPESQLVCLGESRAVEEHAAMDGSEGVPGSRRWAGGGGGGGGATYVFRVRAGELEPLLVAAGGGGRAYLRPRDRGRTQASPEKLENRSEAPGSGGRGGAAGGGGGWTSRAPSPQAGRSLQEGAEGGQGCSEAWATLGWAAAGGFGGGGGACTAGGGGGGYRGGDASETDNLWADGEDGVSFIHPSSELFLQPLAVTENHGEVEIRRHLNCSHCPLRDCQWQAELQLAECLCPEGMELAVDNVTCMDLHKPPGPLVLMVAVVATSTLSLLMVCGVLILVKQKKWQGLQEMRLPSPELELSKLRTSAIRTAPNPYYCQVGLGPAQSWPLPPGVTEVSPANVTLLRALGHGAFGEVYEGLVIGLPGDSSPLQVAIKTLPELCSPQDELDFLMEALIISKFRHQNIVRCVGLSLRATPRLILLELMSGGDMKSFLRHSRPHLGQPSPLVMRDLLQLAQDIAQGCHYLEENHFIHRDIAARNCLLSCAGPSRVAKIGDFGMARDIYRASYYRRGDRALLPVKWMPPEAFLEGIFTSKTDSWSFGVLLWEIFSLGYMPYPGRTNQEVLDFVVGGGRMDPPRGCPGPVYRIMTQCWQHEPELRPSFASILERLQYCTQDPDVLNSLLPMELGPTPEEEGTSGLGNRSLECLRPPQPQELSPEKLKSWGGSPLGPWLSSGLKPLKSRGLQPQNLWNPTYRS

[4] = biological target: T2, Flt3 (Homo sapiens, UniProt P36888); details: at 1 nM; cited from earlier work
T2 sequence (P36888 27-993): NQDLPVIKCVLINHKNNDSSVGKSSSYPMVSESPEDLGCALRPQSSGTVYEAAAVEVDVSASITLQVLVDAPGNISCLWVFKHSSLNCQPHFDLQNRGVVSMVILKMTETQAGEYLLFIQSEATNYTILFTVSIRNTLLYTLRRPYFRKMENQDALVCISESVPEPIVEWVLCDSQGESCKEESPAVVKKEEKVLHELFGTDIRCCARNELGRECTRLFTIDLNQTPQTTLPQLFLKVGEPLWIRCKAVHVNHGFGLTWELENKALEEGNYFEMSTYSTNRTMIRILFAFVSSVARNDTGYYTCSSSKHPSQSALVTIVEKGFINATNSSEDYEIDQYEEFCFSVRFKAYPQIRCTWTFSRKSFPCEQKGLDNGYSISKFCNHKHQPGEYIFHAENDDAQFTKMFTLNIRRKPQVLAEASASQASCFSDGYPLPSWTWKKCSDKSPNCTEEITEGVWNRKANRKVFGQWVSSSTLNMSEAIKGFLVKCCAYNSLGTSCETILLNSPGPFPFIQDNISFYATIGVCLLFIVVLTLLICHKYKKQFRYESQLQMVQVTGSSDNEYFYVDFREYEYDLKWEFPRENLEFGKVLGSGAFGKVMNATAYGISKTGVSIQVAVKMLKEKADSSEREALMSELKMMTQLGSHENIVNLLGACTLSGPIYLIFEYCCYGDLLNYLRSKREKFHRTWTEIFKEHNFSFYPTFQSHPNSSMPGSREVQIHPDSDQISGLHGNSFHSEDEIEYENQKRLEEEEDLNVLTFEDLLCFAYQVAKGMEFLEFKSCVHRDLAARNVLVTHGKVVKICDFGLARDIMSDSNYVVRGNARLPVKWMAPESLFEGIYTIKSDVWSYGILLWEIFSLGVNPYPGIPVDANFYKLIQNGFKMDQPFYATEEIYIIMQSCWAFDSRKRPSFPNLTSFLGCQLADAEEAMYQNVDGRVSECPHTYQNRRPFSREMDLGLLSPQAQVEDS

[5] = system: MEL1 INS GFP/W hESC spheres; experiment: hESC suspension differentiation, qPCR of NGN3 and NKX2.2 at day 8; assay type: cell-based, human; details: compared to RCN condition / during RCN or R treatment
Description: FIGS. 16A-16D. Published protocols result in precocious endocrine differentiation by NEUROG3 activation. FIGS. 16A-C: Analysis of key pancreatic progenitor markers in clusters differentiated as outlined in FIG. 15A. R=Retinoic acid, C=Cyclopamine, N=Noggin, E=Epidermal growth factor, K=Keratinocyte growth factor, T=TBP, and A=ALK inhibitor. Data shown are representative of two independent experiments. FIG. 16A: PDX1, INS, GCG, NEUROG3, and NKX6.1 protein expression was assessed by whole mount staining of differentiated clusters at indicated time points. Note precocious expression of the endocrine marker NEUROG3 in the absence of NKX6.1 protein at days 6-9. FIGS. 16B and 16C: Flow cytometric quantification of PDX1^+ (orange gate), PDX1^+/NKX6.1^+ (blue gate), INS^+/NKX6.1^+ (green gate), and INS^+/NKX6.1^− (red gate) cells at indicated time points. […]
Total RNA was isolated with TRIZOL (Sigma) or micro/mini RNAeasy kit (Qiagen) and reverse transcribed using the iScript cDNA Kit (Bio-Rad) according to manufacturer's instructions. qPCR analysis was performed on an ABI 7900 HT Fast Real-Time PCR System (Applied Biosystems) and CFX Connect Real Time System (Biorad) using standard protocols. […] P-values were calculated using a two-tailed student's t-test. […]

[6] = system: pancreatic endodermal progenitor (cPE) cells; experiment: Protocol 2 maturation of cPE cells into cPB cells (INSULIN mRNA, C-peptide cells)
[7] = system: pancreatic endodermal progenitor cells (cPE cells); experiment: Maturation of cPE cells into C-peptide positive cells, chemical screen; details: added individually to basal pancreatic differentiation media
[8] = system: MEL1 INS GFP/W hESC spheres; experiment: hESC suspension differentiation, flow cytometry of PDX1 and NKX6.1; assay type: cell-based, human; details: alone, conditions 2 and 3; day 9.5
Description: Treatments consisted of combinations of Cyclopamine (C), Noggin (N), and retinoic acid (R) during days 6-8, followed by subdivision of each condition into three treatment groups during day 9-9.5. Group 1) continuation of day 6-8 treatment; Group 2) treatment with EGF and KGF (EK); Group 3) treatment with EGF, KGF, and Noggin (EKN). […] Data shown are representatives of results obtained in two independent experiments. […] FIG. 17B: Quantification of PDX1 (orange gate) and NKX6.1 (blue gate) protein expressing cells in individual conditions after 9.5 days of differentiation.
Suspension-based differentiations were carried out as follows. Briefly, confluent cultures were dissociated into single cell suspension by incubation with TrypLE (Gibco). […] To induce definitive endoderm differentiation, aggregates were collected 24 hours later in a 50 ml falcon tube, allowed to settle by gravity, washed once with PBS and re-suspended in d1 media (RPMI (Gibco) containing 0.2% FBS, 1:5000 ITS (Gibco), 100 ng/ml Activin A, and 50 ng/ml WNT3a (R&D systems)). Clusters from 3 wells were combined into 2 wells at this point and distributed into fresh low-attachment plates in 5.5 ml d1 media. Media thereafter was changed daily, by removing either 4.5 ml media (at the end of d1) or 5.5 ml media the following days and adding back 5.5 ml fresh media until day 9. After day 9, only 5 ml of media was removed and added daily.
Briefly, spheres were collected and allowed to settle by gravity. Clusters were washed once in PBS and dissociated by gentle pipetting after 12-15 minutes incubation in Accumax (Innovative Cell Technologies). For sorting, cell suspensions were filtered and re-suspended in FACS buffer consisting of phosphate-buffered saline (PBS) (UCSF cell culture facility) containing 2 mM EDTA (Ambion) and 1% BSA (Sigma). Dead cells were excluded by DAPI (Sigma) staining Cell sorting was performed on a FACS Aria II (BD Bioscience). […]

[9] = system: MEL1 INS GFP/W hESC spheres; experiment: hESC suspension differentiation, NEUROG3 immunofluorescence; assay type: cell-based, human; details: days 6-9.5
Description: Undifferentiated MEL1 INS^GFP/W reporter cells (Micallef et al, 2012) were maintained on mouse embryo fibroblast feeder layers (Millipore) in hESC media as described (Guo et al, 2013b). Suspension-based differentiations were carried out as follows. Briefly, confluent cultures were dissociated into single cell suspension by incubation with TrypLE (Gibco). Cells were counted and each well of 6-well low-adherence plates were seeded with 5.5×10^6 cells in 5.5 ml hES media supplemented with 10 ng/ml Activin A (R&D systems) and 10 ng/ml HeregulinB1 (Peprotech). Plates were placed on an orbital shaker at 100 rpm to induce sphere formation, as described (Schulz et al, 2012). To induce definitive endoderm differentiation, aggregates were collected 24 hours later in a 50 ml falcon tube, allowed to settle by gravity, washed once with PBS and re-suspended in d1 media (RPMI (Gibco) containing 0.2% FBS, 1:5000 ITS (Gibco), 100 ng/ml Activin A, and 50 ng/ml WNT3a (R&D systems)). Clusters from 3 wells were combined into 2 wells at this point and distributed into fresh low-attachment plates in 5.5 ml d1 media. Media thereafter was changed daily, by removing either 4.5 ml media (at the end of d1) or 5.5 ml media the following days and adding back 5.5 ml fresh media until day 9. After day 9, only 5 ml of media was removed and added daily. […]

Question: Which “inhibition of AXL” value [1] does the source give for `CCc1nc(C(N)=O)c(Nc2ccc(N3CCC(N4CCN(C)CC4)CC3)c(OC)c2)nc1NC1CCOCC1` [ASP2215] here?
Answer: Its value is “over 50%”.

Question: What about the “inhibition of ALK” value [2] of the same molecule?
Answer: The value was “over 50%”.

Question: And the “inhibition of LTK” value [3]?
Answer: Its value is “over 50%”.

Question: And the “inhibition of FLT3” value [4]?
Answer: The value was “over 50%”.

Question: With `O=C1O[C@H]([C@@H](O)CO)C(O)=C1O` [Vitamin C] as the molecule, how does the “NEUROG3 (NGN3) and NKX2.2 mRNA transcripts” value [5] read?
Answer: The value was “did not significantly lower”.

Question: And the “number of C-peptide positive cells co-expressing PDX1 and NKX6.1” value [6]?
Answer: The value was “increased”.

Question: What about the “expression of the INSULIN gene (mRNA)” value ([6]; day 21, compared to DMSO controls) of the same molecule?
Answer: The value was “promoted expression”.

Question: And the “percentage of C-peptide positive cells, individual supplementation” value [7]?
Answer: Its value is “effective in increasing”.

B1: Noggin: the BMP inhibitor Noggin (protein, UniProt Q13253 28-232, looked up)
Noggin: QHYLHIRPAPSDNLPLVDLIEHPDPIFDPKEKDLNETLLRSLLGGHYDPGFMATSPPEDRPGGGGGAAGGAEDLAELDQLLRQRPSGAMPSEIKGLEFSEGLAQGKKQRLSKKLRRKLQMWLWSQTFCPVLYAWNDLGSRFWPRYVKVGSCFSKRSCSVPEGMVCKPSKSVHLTVLRWRCQRRGGQRCGWIPIQYPIISECKCSC
Question: With B1 as the molecule, how does the “generation of PDX1+ cells over base media alone” value [8] read?
Answer: Its value is “did not result in enhanced generation”.

Question: What about the “NEUROG3 expression (endocrine differentiation)” value [9] of the same molecule?
Answer: Its value is “noted only when spheres had been exposed to N”.
